Reference: patent EP0261503B1, “Heterocyclic amido derivatives of substituted benzoic acids and therapeutic compositions which contain them as active principle” (VALEAS S.p.A. INDUSTRIA CHIMICA E FARMACEUTICA, priority 1986, dated 1988)

Legend:
[1] = test system: passive cutaneous anaphylaxis; assay: passive cutaneous anaphylaxis test (PCA) in the rat, oral administration; assay type: in vivo; conditions: PCA test on the rat, oral administration 30 minutes before antigen challenge; for Activity: relative to Tranilast = 1
Protocol: The products of general formula (I) listed in Table 1 were subjected to a first pharmacological screening to evaluate their activity after oral administration in the passive cutaneous anaphylaxis test (PCA) in the rat in accordance with Goose J. and Blair A.M.J.N. (Immunology, 16, 749-760, 1969). Serum, obtained from rats actively sensitized with ovalbumin and suitably diluted, was injected intradermally into the shave back of male Sprague Dawley rats, and after 24 hours these were treated intravenously with a solution of ovalbumin and Evans blue. Thirty minutes after the antigen challenge, the animals were sacrificed and the diameter and intensity of the blue halo which has formed in the intradermal injection site was measured. The compounds according to the invention, and also tranilast (N-3ʹ, 4ʹ-dimethoxycinnamoyl) anthranilic acid) used as reference standard, were dissolved-suspended in suitable solvents (carboxymethylcellulose, gum arabic, DMSO etc.) and administered orally thirty minutes before the antigen challenge. Table 2 lists the ED₅₀ values and the relative confidence limits at p = 0.05.

[2] = test system: passive cutaneous anaphylaxis; assay: passive cutaneous anaphylaxis test (PCA) in the rat, intraperitoneal administration; assay type: in vivo; conditions: ip, PCA test on the rat, 15 minutes before antigen challenge, versus control group
Protocol: The products of general formula (I) listed in Table 1 were subjected to a first pharmacological screening to evaluate their activity after oral administration in the passive cutaneous anaphylaxis test (PCA) in the rat in accordance with Goose J. and Blair A.M.J.N. (Immunology, 16, 749-760, 1969). Serum, obtained from rats actively sensitized with ovalbumin and suitably diluted, was injected intradermally into the shave back of male Sprague Dawley rats, and after 24 hours these were treated intravenously with a solution of ovalbumin and Evans blue. Thirty minutes after the antigen challenge, the animals were sacrificed and the diameter and intensity of the blue halo which has formed in the intradermal injection site was measured. Some of the compounds according to the invention were subjected to a further passive cutaneous anaphylaxis test evaluation to determine their efficiency after intraperitoneal administration at a dose of 100 mg/kg, fifteen minutes before the challenge. […]

| SMILES | ED₅₀ [1] [mmoles/kg/os] | Activity [1] | inhibition at 100 mg/kg [2] [%] |
| --- | --- | --- | --- |
| CCOC(=O)c1cc(C)sc1NC(=O)c1cccc(OC)c1[N+](=O)[O-] [Compound 1, 3-thiophene carboxylic acid-2-[(2-nitro-3-methoxybenzoyl)amino]-5-methyl ethyl ester] | 0.21 | 1.5 | 59.4 |
| CCOC(=O)c1cc(C)sc1NC(=O)c1cccc(OC)c1N [Compound 7, 3-THIOPHENE CARBOXYLIC ACID, 2[(2-AMINO-3-METHOXY BENZOYL)AMINO]-5-METHYL-ETHYL ESTER] |  | 450.7 | 31.9 |
| CCOC(=O)c1cc(C)sc1NC(=O)c1cccc(OC)c1NC(C)=O [Compound 15, 3-THIOPHENE CARBOXYLIC ACID, 2-[(2-ACETYL AMINO-3-METHOXY BENZOYL)AMINO]-5-METHYL, ETHYL ESTER] | 0.013 | 24.6 |  |
| COc1cccc(C(=O)Nc2sc(C)cc2C(=O)O)c1N [Compound 16, 3-THIOPHENE CARBOXYLIC ACID, 2-[(2-AMINO-3-METHOXY BENZOYL)AMINO]-5-METHYL] |  | 41.0 |  |
| CCOC(=O)C(=O)Nc1c(OC)cccc1C(=O)Nc1sc(C)cc1C(=O)OCC [Compound 18, 3-THIOPHENE CARBOXYLIC ACID, 2-[[2-AMINO(OXOACETIC ACID ETHYL ESTER)-3-METHOXY BENZOYL] AMINO]-5-METHYL, ETHYL ESTER] |  | 114.3 |  |
| CCOC(=O)Cc1csc(NC(=O)c2cccc(OC)c2N)n1 [Compound 25, 4-THIAZOLE ACETIC ACID, 2-[(2-AMINO-3-METHOXY BENZOYL)AMINO], ETHYL ESTER] |  | 64.0 | 43.1 |
| CCOC(=O)c1cc(C)sc1-n1c(=O)[nH]c2c(OC)cccc2c1=O [Compound 32, 8-METHOXY-3-[(3-ETHOXY CARBONYL-5-METHYL)-THIENYL]-2,4 QUINAZOLONE] | 0.08 | 4.0 | 52.7 |
| CCOC(=O)C(O)c1csc(-n2c(=O)[nH]c3c(OC)cccc3c2=O)n1 (stereo not drawn) [Compound 36, 8-METHOXY-3-[[5-(α-HYDROXY ETHYL ACETATE)]-THIAZENYL]-2,4 QUINAZOLONE] | 0.054 | 5.9 | 40.7 |
| CCOC(=O)Cc1csc(NC(=O)c2cc(C)ccc2N)n1 [Compound 37] |  | 213.3 | 88.4 |
| COc1ccc(C=CC(=O)Nc2ccccc2C(=O)O)cc1OC [Tranilast, N-(3ʹ,4ʹ-dimethoxycinnamoyl) anthranilic acid, reference compound] | 0.32 | 1 |  |
